We go through one compound from paper PMC9268515, “UGT1A1 and UGT1A9 Are Responsible for Phase II Metabolism of Tectorigenin and Irigenin In Vitro” (Molecules, 2022).

In the data set the target is T1, UGT2B4 (Homo sapiens, UniProt P06133).
T1 construct: purchased BD Biosciences (Woburn, MA, USA)
T1 sequence (P06133 24-528): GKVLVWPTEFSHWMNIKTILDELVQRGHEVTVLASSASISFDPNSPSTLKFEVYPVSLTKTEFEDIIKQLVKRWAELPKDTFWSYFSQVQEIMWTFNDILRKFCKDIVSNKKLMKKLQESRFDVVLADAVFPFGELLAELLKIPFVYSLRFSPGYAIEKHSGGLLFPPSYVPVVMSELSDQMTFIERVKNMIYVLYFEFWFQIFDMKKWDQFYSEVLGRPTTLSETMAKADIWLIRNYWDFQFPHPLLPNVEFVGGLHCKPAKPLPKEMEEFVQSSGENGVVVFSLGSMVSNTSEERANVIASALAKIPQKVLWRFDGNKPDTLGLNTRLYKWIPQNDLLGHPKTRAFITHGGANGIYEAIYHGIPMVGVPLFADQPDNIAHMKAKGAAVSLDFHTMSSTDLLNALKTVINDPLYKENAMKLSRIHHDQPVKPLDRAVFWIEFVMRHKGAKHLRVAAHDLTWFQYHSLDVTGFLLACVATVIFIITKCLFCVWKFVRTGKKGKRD
The experiment in a line: Recombinant UGT reaction screening, UGT2B4. The class given is in vitro ADME. The method, then:
UGT reaction screening of tectorigenin and irigenin was conducted using nine commercially available human UGTs (UGT1A1/1A3/1A4/1A6/1A9/2B4/2B7/2B15/2B17). Furthermore, we studied the enzymatic kinetic characteristics of tectorigenin and irigenin using UGT1A1 and UGT1A9. Six concentrations of tectorigenin and irigenin (1, 3, 10, 30, 100, and 300 μM) were incubated in triplicate in order to obtain the enzyme kinetic characteristics of tectorigenin and irigenin glucuronide.

For the compound `COc1c(O)cc2occ(-c3ccc(O)cc3)c(=O)c2c1O` [Tectorigenin, 5,7,4′-trihydroxyl-6-methoxyl isoflavone], the “Activity in glucuronidation of tectorigenin” value is “none”.
